Assay [1] addresses T1, CDK9/Cyclin K (Homo sapiens, UniProt P50750).
T1 construct: purchased Invitrogen
The assay is described as follows: LanthaScreen Eu Kinase Binding Assay, CDK9/Cyclin K. To be noted: tracer 236, read-out: Affinity (Kd) CDK9/Cyclin K. As to the method: (§1) This protocol describes how the LanthaScreen Eu Kinase Binding Assay was performed to determine dissociation constants (Kd) of compounds of general formula (I) and CDK/Cyclin complexes. The principle behind this assay is based upon the binding and displacement of an Alexa Fluor 647-labeled tracer, which binds to the active site of kinases. Binding of the tracer to the kinase is detected using a Eu-labeled antibody. Simultaneous binding of both the tracer and antibody to the kinase gives rise to a FRET-signal. Binding of an inhibitor to the kinase competes for binding with the tracer, resulting in a loss of FRET.
(§2) The compounds of general formula (I) summarized in Table 1 were diluted from a 10 mM DMSO stock solution 1:10 in a total volume of 15 μL DMSO. This compound predilution was then serial diluted 1:3 over 8 steps in DMSO and briefly spun down. Each compound solution was now diluted 1:33.33 in kinase buffer (HEPES: 20 mM, pH: 8.0; MgCl2: 10 mM; DTT: 1 mM; Brij-35: 0.01%), mixed thoroughly and spun down. For every sample, 5 μL of the diluted compound were mixed with 5 μL tracer working solution (e.g. 60 nM tracer 236 in kinase buffer for CDK2/Cyclin A) and 5 μL CDK/Cyclin/Anti-GST-AB-working solution (e.g. 15 nM CDK2/Cyclin A, 1:250 dilution of Anti-GST-AB in kinase buffer) in a well of a small volume 384 well plate (Corning Incorporated, Corning, N.Y., USA; order no. 3673). […] For positive controls, in each well 5 μL of DMSO working solution (3% DMSO diluted in kinase buffer) was mixed with 5 μL CDK/Cyclin/Anti-GST-AB-working solution: (e.g. 15 nM CDK2/Cyclin A, 1:250 dilution of Anti-GST-AB in kinase buffer) and 5 μL Tracer working solution (e.g. 60 nM Tracer 236 in kinase buffer for CDK2/Cyclin A). Positive and negative controls were calculated from at least 8 different sample wells. The 384 well plates were mixed in a Teleshaker plate mixer (Beckman Coulter, Brea, Calif., USA) at 2000 rpm for 40 sec, and incubated for 1 h at room temperature before reading. The FRET signal was measured at 340 nm excitation, 665 nm and 615 nm emission (for the kinase tracer and LanthaScreen Eu-AB, respectively) with an Envision spectrophotometer (Perkin Elmer, Waltham, Mass., USA) with 50 μs delay and 300 μs integration time. Kd values were determined from the sigmoidal dose response curves with the software Quattro Workflow (Quattro GmbH, Munich, Germany).

The target of assay [2] is T2, CDK7/CyclinH/Mat1 (Homo sapiens, UniProt P50613).
T2 construct: purchased Carna Biosciences
The experiment in a line: LanthaScreen Eu Kinase Binding Assay, CDK7. As to conditions: tracer 236, read-out: Affinity (Kd) CDK7. As to the method:
as §1, §2
A general note: In TR-FRET formats the signal depends on donor and acceptor labels being close together.

The target of assay [3] is T3, CDK9/Cyclin T1 (Homo sapiens, UniProt P50750).
T3 construct: purchased Invitrogen
The experiment in a line: LanthaScreen Eu Kinase Binding Assay, CDK9/Cyclin T1. As to conditions: tracer 236, read-out: Affinity (Kd) CDK9/Cyclin T1. As to the method:
as §1, §2

The target in assay [4] is T4, CDK2/CyclinA (Homo sapiens, UniProt P24941).
T4 construct: purchased Proqinase
The experiment in a line: LanthaScreen Eu Kinase Binding Assay, CDK2. To be noted: tracer 236, read-out: Affinity (Kd) CDK2. As to the method: as §1, §2

T2 sequence (P50613 whole entry): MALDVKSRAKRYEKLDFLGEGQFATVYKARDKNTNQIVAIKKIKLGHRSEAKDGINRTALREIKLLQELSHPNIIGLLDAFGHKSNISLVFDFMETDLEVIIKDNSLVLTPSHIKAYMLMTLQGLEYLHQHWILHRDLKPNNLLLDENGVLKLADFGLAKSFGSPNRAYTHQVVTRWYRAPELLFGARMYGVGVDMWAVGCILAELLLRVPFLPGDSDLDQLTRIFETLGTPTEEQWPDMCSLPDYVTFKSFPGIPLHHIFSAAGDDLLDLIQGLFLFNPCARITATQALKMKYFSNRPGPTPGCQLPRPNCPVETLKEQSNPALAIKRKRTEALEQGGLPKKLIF
T2 sequence (P51946 whole entry partner): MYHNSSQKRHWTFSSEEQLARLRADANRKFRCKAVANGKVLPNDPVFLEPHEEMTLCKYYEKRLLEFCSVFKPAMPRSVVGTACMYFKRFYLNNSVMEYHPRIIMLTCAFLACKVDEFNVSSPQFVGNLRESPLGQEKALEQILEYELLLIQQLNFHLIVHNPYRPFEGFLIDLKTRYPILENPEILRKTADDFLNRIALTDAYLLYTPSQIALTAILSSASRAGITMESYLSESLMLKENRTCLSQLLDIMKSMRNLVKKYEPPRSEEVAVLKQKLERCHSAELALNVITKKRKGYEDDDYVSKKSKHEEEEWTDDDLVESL
T2 sequence (P51948 whole entry partner): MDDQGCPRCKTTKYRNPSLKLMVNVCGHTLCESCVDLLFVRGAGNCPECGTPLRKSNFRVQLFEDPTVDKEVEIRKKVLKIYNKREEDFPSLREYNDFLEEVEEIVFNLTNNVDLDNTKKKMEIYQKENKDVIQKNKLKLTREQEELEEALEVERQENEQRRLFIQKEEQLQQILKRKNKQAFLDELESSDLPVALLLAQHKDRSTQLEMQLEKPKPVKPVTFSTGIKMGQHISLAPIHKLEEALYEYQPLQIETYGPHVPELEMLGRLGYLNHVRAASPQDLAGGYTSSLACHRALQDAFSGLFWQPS
T3 sequence (P50750 whole entry): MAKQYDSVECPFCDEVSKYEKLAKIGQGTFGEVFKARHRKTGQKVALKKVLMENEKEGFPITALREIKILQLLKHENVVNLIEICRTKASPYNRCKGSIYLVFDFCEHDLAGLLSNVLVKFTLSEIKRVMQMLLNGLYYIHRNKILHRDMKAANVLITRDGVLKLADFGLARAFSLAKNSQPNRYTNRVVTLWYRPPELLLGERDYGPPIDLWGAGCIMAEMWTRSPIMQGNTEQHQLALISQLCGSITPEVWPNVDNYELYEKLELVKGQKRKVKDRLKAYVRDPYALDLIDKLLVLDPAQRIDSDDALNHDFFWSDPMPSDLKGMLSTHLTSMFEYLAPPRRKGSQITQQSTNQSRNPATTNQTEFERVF
T3 sequence (O60563 whole entry partner): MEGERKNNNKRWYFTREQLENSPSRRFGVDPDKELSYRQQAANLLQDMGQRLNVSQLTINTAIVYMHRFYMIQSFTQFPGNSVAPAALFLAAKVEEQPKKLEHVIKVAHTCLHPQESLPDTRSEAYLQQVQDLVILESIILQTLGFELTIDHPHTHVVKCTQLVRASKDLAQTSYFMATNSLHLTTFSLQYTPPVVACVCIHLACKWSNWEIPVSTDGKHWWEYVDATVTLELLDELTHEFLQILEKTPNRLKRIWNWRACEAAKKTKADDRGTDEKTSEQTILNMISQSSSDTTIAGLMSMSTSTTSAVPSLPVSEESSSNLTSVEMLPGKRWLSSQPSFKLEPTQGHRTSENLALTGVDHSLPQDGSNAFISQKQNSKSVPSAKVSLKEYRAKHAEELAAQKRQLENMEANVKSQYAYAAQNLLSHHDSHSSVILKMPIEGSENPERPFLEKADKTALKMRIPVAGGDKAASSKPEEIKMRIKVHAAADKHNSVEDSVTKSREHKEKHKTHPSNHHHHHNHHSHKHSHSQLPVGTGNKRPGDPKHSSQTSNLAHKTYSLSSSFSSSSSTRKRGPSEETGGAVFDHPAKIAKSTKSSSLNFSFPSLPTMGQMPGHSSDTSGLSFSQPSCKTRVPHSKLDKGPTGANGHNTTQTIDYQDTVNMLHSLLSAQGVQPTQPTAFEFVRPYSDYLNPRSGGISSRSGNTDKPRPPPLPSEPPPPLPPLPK
T1 sequence (P50750 whole entry): as the sequence (P50750 whole entry) above
T1 sequence (O75909 whole entry partner): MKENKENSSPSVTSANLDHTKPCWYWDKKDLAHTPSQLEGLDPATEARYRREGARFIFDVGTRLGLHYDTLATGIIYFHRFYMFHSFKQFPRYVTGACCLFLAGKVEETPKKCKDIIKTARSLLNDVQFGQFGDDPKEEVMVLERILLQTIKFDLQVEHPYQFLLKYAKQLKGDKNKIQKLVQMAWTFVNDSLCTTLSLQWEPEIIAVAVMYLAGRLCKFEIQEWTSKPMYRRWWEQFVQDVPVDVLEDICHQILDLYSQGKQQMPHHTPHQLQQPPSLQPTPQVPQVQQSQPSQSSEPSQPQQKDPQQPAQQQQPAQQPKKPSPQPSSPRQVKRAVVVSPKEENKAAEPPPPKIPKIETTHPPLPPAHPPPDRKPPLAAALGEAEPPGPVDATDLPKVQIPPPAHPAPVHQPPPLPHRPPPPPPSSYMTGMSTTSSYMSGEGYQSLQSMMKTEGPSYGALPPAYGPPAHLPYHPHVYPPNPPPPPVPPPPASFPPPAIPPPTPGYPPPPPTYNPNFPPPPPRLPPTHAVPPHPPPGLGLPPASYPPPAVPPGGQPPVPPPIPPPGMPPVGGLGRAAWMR

For `CCOC(=O)N=S(C)(=O)c1cccc(Nc2ncnc(-c3ccccc3OC)n2)c1` (racemic) [Compound G1, rac-S-[3-((4-(2-Methoxyphenyl)-1,3,5-triazin-2-yl)amino)phenyl]-N-ethoxycarbonyl-S-methyl-sulfoximide], the Kd in assay [1] is 87.2 nM; in assay [2], more than 10 µM; in assay [3], 105 nM; in assay [4], more than 10000 nM.

For `COc1c(F)cc(F)cc1-c1ncnc(Nc2cccc(CS(N)(=O)=O)c2)n1` [Compound B5, 3-[(4-(3,5-Difluoro-2-methoxyphenyl)-1,3,5-triazin-2-yl)amino]benzenemethanesulfonamide], the Kd was 286 nM in assay [1], more than 10 µM in assay [2] and 835 nM in assay [3].

For `COc1cc(C(F)(F)F)ccc1-c1ncnc(Nc2cccc(CS(N)(=O)=O)c2)n1` [Compound B8, 3-[(4-(2-Methoxy-4-trifluoromethyl-phenyl)-1,3,5-triazin-2-yl)amino]benzenemethanesulfonamide], the Kd in assay [1] is 709 nM; in assay [2], more than 10 µM; in assay [3], 1230 nM.

On to `COc1ccc(C(F)(F)F)cc1-c1ncnc(Nc2cccc(CS(N)(=O)=O)c2)n1` [Compound B9, 3-[(4-(2-Methoxy-5-trifluoromethyl-phenyl)-1,3,5-triazin-2-yl)amino]benzenemethanesulfonamide], for which the Kd is 1590 nM in assay [1], more than 10 µM in assay [2] and 398 nM in assay [3].

On to `COc1ccc(CO)cc1-c1ncnc(Nc2cccc(CS(N)(=O)=O)c2)n1` [Compound B10, 3-[(4-(5-Hydroxymethyl-2-methoxyphenyl)-1,3,5-triazin-2-yl)amino]benzenemethanesulfonamide], for which the Kd is 110 nM in assay [1], more than 10 µM in assay [2] and 309 nM in assay [3].

Regarding `CC(C)(C)OC(=O)NCCCCOc1ccccc1-c1ncnc(Nc2cccc(CS(N)(=O)=O)c2)n1` [Compound B17, 3-[(4-(2-(4-(tert-Butoxycarbonylamino)butoxy)phenyl)-1,3,5-triazin-2-yl)amino]benzenemethanesulfonamide], the Kd in assay [1] amounted to 6.4 nM; in assay [2] it was 12.8 µM; in assay [3], 15 nM; in assay [4] it was 2850 nM.

For the molecule `NS(=O)(=O)Cc1cccc(Nc2ncnc(-c3ccccc3CNC3CC3)n2)c1` [Compound B22, 3-[(4-(2-(Cyclopropylamino-methyl)phenyl)-1,3,5-triazin-2-yl)amino]benzenemethanesulfonamide], the results for the Kd in assay [1] and in assay [3] were 373 nM and 425 nM, respectively.

On to `COCc1ccccc1-c1ncnc(Nc2cccc(CS(N)(=O)=O)c2)n1` [Compound B24, 3-[(4-(2-(Methoxymethyl)phenyl)-1,3,5-triazin-2-yl)amino]benzenemethanesulfonamide], for which the Kd is 1110 nM in assay [1], more than 10 µM in assay [2] and 907 nM in assay [3].

Consider `COc1ccccc1-c1ncnc(Nc2ccc3c(c2)N(S(N)(=O)=O)CC3)n1` [Compound F1, 6-[(4-(2-Methoxyphenyl)-1,3,5-triazin-2-yl)amino]-2,3-dihydro-1H-indole-1-sulfonamide], for which the Kd in assay [1] came to 39.7 nM; in assay [2] it was 13.4 µM; in assay [3], 131 nM; in assay [4], 1100 nM.

`NCCCCOc1ccccc1-c1ncnc(Nc2cccc(CS(N)(=O)=O)c2)n1` [Compound I1, 3-[(4-(2-(4-Aminobutoxy)phenyl)-1,3,5-triazin-2-yl)amino]benzenemethanesulfonamide]: the values for the Kd in assay [1], in assay [2] and in assay [3] were 52 nM, more than 30 µM and 101 nM, respectively.

Regarding `COc1ccccc1-c1ncnc(Nc2cccc(NC(C)=O)c2)n1` [Compound M1, N-[3-((4-(2-Methoxyphenyl)-1,3,5-triazin-2-yl)amino)phenyl]acetamide], the Kd was 71.2 nM in assay [1], more than 30 µM in assay [2], 146 nM in assay [3] and 1450 nM in assay [4].

`CNCc1ccc(OC)c(-c2ncnc(Nc3cccc(CS(N)(=O)=O)c3)n2)c1` [Compound O1, 3-[(4-(2-Methoxy-5-(methylamino-methyl)phenyl)-1,3,5-triazin-2-yl)amino]benzenemethanesulfonamide]: the Kd in assay [1] is 5980 nM; in assay [2] it was more than 30 µM; in assay [3], 5410 nM.

With `COc1cc(F)ccc1-c1ncnc(Nc2cccc(CS(=O)(=O)NCCCCNC(=O)OC(C)(C)C)c2)n1` [Compound Q1, tert-Butyl [4-((3-((4-(4-Fluoro-2-methoxyphenyl)-1,3,5-triazin-2-yl)amino)phenyl)methylsulfonamido)butyl]carbamate], the Kd in assay [1] was 5 nM; in assay [2] it was more than 10 µM; in assay [3], 12.9 nM; in assay [4], 2090 nM.

In the case of `COc1cc(F)ccc1-c1ncnc(Nc2cccc(CS(=O)(=O)NCCCCN)c2)n1` [Compound R1, N-(4-Aminobutyl)-1-[3-((4-(4-fluoro-2-methoxyphenyl)-1,3,5-triazin-2-yl)amino)phenyl]methanesulfonamide], the Kd was 5 nM in assay [1], more than 10 µM in assay [2], 5 nM in assay [3] and 2920 nM in assay [4].

These data come from patent publication US20130079345A1, “[…] ACTIVE DISUBSTITUTED TRIAZINE DERIVATIVES” (BAYER INTELLECTUAL PROPERTY GMBH, priority 2010, published 2013).
